Results published in patent US20240197735A1, “METHODS AND COMPOSITIONS COMPRISING A BRAF INHIBITOR AND A PD-1 BINDING ANTAGONIST” (Hoffmann-La Roche Inc., priority 2021, published 2024).

What was measured:
[1] = target: BRAF (Homo sapiens (Human), UniProt P15056); experiment: Kd affinity for BRAF kinase; format: binding
[2] = target: BRAF V600E (Homo sapiens (Human), UniProt P15056, V600E); experiment: Kd affinity for BRAF V600E kinase; format: binding
[3] = target: CRAF (Homo sapiens (Human), UniProt P04049); experiment: Kd affinity for CRAF kinase; format: binding
[4] = target: C-terminal Src kinase (CSK) (Homo sapiens (Human), UniProt P41240); experiment: Kd affinity for C-terminal Src kinase (selectivity); format: binding
[5] = target: lymphocyte-specific tyrosine protein kinase (LCK) (Homo sapiens (Human), UniProt P06239); experiment: Kd affinity for lymphocyte-specific tyrosine protein kinase (selectivity); format: binding
[6] = test system: P-ERK in A375 cells expressing V600E mutated BRAF; experiment: HTRF assay for P-ERK determination in A375 cells (BRAF inhibition); format: cell-based; details: Homo sapiens, A-375, 1 h, read-out: pERK IC50 (nM) A375
Protocol: (§1) A375 is a cellular cancer model expressing V600E mutated BRAF and HCT116 a cellular cancer model expressing WT BRAF. […] ERK 1,2 phosphorylation (terminal member of the phosphorylation cascade of the MAPK pathway) is hereafter reported as main readout for the activation status of the MAPK pathway. Prior to the assay, A375 and HCT116 cell lines are maintained in DMEM no-phenol red medium supplemented with 10% fetal bovine serum (FBS). […] Briefly, 8000 cells/well in 12 μl media/well are plated in the 384-well plate and left overnight in the incubator (at 37° C. with 5% CO2-humidified atmosphere), the following day the plate is treated in duplicate with test compounds, dabrafenib and PLX8394 (the latter two as controls) at the following final drug concentrations: 10 μM-3 μM-1 μM-0.3 μM-0.1 μM-0.03 μM-0.01 μM-0.003 μM-0.001 μM, all wells are subjected to DMSO normalization and drug incubation occurs for 1 hour. Then, 4 μl of a 4× lysis buffer supplied with the kit are added to the wells, the plate is then centrifuged for 30 second (300 rcf) and incubated on a plate shaker for 1 h at RT.
(§2) At the end of the incubation 4 μL/well of advanced P-ERK antibody solution (prepared according to manufacturer's instruction) followed by 4 μL/well of criptate P-ERK antibody solution (prepared according to manufacturer's instruction) (Cisbio cat #64AERPEH) are added to test wells.
(§3) In order to allow proper data normalization control wells without drug treatment reported are always included in each plate (according to manufacturer's instruction):
(§4) The plate is then centrifuged at 300 rcf for 30 second, sealed to prevent evaporation and incubated overnight in the dark at room temperature.
(§5) The obtained fluorescence values are processed according to the formula Ratio=[…]*10000 then the average of the ratio on the blank is subtracted to all values.
Mean of the normalized points are fitted with sigmoidal curve and IC50 determined.

[7] = test system: P-ERK in HCT116 cells expressing WT BRAF; experiment: HTRF assay for P-ERK determination in HCT116 cells (paradoxical BRAF activation); format: cell-based; details: HCT-116 cells; for Percentage of Maximum paradox inducing effect from dabrafenib: maximum P-ERK signal as percentage of highest dabrafenib signal within dose range tested; for EC50: read-out: p-ERK EC50 (nM) conc. (nM) at which the compound induces P-ERK activation of 50% of that induced by dabrafenib (Positive control paradox inducer) HCT-116, 1 hour drug incubation, not applicable if activation does not reach 50% of dabrafenib maximum
Protocol: as §1, §2, §3, §4
The plate is then analyzed and fluorescence emission value collected through a Pherastast FSX (BMG Labtech) apparatus at […].
as §5
Individual points are fitted with either sigmoidal or bell shape curves, and the percentage of activation compared to maximum dabrafenib-mediated activation is determined. The EC50 is the concentration at which activation equal to 50% of the maximum achieved by dabrafenib is obtained.
The Percentage of Maximum paradox inducing effect from dabrafenib is determined by evaluating the percentage at which the test compound induce its maximum P-ERK signal as percentage of the highest signal produced by dabrafenib within the dose range tested.

[8] = test system: P-ERK in A375 BRAF V600E NRAS Q61K cells; experiment: P-ERK levels in first generation BRAFi resistant cell model A375 BRAF V600E NRAS Q61K; format: cell-based
[9] = test system: YUMM1.7 tumors (BRAF V600E); experiment: In vivo antitumor activity on YUMM1.7 syngeneic allograft tumors; parameters: species or system mouse (C57BL/6); details: combination of Compound Ia (1 or 5 mg/kg PO QD) and mouse anti PD-1 antibody (IV once a week); monitored until day 58
Protocol: Mice were treated until day 31 and afterwards drug treatments were suspended and mice were monitored for evidences of tumor regrowth.
Mice were treated until day 45 and afterwards drug treatments were suspended and mice were monitored for evidences of tumor regrowth.
In the in vivo studies, female mice 7-9 weeks old (at experiment initiation) of the immunocompetent strain C57BL/6 were utilized. The experiment was performed at the Contract Research Organization (CRO) Covance that sourced mice, performed tumor establishment, drug treatment and tumor monitoring.
For xenograft establishment YUMM1.7 cells were suspended in a media composed of 50% Matrigel and 50% Hank's balanced Salt Solution and injected subcutaneously on the right flanks. When tumor volume reached around 100 mm^3 mice were randomized prior treatment.
Mice were implanted with the cell line YUMM1.7 harboring the BRAF V600E mutation. Upon tumor establishment (100 mm3) mice were randomized and received orally (PO) once per day (QD) either Compound Ia (1 mg/kg or 5 mg/kg), mouse anti PD-1 antibody through IV injection, once a week or the respective combinations of PD-1 and Compound Ia at 1 or 5 mg/kg. […] Upon treatment conclusion mice were monitored until day 58 for signs of tumor relapse.

[10] = test system: YUMM1.7 tumors, immune cell infiltrate (mCD45, mCD3); experiment: Immuno-phenotyping of YUMM1.7 tumors by flow cytometry and IHC; format: in vivo, mouse (C57/BL6)
Protocol: FIG. 6 reports the total immune cell (top) and T-cell (bottom) infiltrates in tumors, as quantified through flow cytometry. Total immune cell infiltrate was expressed as percentage of mCD45 positive with respect to the alive cells at day 3 and day 6, and T-cell infiltrate expressed in mCD3 positive cells per mm2.
FIG. 7 reports the immunohistochemistry analysis of the mouse immune cell marker CD45 of tumors treated for 3 days with either Vehicle, Compound Ia at 5 mg/kg (daily), mPD1 at 12.5 mg/kg (single treatment) or a combination thereof.
For the immunohistochemical analysis, female C57/BL6 mice were injected subQ with YUMM1.7 cells. When tumors reached around 250 mm^3 (day 14) mice were treated with either Compound Ia at 1 or 5 mg/kg daily (oral administration), with anti-mouse PD1 at 12.5 mg/kg once (single intraveneous administration) or the combination of Compound Ia and anti-mPD1. Mice were sacrificed and tumors collected upon 3 or five days from the beginning of the treatment and tumors were either digested and utilized for cytofluorimetric analysis of fixed and paraffin embedded.

C-terminal Src kinase (CSK), sequence (P41240 whole entry): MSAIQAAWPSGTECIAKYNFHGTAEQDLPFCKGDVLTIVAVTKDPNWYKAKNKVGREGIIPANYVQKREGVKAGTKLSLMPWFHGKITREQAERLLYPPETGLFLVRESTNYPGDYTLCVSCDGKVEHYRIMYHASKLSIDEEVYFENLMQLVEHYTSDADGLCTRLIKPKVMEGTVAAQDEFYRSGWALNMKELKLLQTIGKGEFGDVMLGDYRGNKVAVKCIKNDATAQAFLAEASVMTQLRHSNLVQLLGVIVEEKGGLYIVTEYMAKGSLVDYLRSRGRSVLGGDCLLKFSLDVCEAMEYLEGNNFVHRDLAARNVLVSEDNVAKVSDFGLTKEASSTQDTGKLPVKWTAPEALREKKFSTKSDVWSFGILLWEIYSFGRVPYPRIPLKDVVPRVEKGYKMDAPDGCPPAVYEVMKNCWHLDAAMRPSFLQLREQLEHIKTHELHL
BRAF, sequence (P15056 whole entry): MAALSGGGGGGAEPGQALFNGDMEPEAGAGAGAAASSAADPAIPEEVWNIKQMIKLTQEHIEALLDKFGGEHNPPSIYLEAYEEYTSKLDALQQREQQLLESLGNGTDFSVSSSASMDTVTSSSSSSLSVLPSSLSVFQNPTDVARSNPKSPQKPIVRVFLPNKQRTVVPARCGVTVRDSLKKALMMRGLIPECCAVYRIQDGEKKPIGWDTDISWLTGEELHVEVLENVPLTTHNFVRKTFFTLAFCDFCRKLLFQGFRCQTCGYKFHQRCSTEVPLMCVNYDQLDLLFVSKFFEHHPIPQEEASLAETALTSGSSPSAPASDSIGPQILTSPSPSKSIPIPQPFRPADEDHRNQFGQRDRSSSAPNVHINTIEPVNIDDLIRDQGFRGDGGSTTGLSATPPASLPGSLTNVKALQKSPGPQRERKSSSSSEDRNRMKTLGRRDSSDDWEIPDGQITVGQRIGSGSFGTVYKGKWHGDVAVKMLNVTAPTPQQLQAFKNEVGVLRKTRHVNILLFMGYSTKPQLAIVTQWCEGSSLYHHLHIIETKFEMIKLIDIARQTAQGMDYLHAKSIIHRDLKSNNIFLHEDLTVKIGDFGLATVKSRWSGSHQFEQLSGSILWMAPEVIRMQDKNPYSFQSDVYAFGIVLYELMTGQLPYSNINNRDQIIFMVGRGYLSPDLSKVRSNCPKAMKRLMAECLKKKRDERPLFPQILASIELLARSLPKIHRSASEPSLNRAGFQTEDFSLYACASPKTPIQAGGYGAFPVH
CRAF, sequence (P04049 whole entry): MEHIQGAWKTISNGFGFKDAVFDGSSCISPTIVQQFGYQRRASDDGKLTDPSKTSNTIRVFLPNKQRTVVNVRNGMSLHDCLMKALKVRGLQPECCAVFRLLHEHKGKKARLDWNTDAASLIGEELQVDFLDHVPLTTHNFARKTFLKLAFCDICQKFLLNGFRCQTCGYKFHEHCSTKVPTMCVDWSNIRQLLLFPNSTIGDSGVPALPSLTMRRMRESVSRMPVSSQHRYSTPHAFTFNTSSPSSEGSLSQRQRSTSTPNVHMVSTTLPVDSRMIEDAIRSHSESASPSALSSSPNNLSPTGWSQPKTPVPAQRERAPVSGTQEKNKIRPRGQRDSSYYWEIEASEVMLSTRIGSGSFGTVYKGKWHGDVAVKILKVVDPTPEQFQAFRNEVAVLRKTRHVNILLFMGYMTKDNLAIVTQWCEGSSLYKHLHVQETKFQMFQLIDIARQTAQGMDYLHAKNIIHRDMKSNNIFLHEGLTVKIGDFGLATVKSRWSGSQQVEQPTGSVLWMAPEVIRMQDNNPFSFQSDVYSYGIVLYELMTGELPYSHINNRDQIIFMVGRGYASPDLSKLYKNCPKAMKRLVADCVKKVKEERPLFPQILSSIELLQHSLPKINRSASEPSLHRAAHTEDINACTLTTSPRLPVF
BRAF V600E, sequence (P15056 whole entry V600E): as the sequence (P15056 whole entry) above, with V600E counted along it
lymphocyte-specific tyrosine protein kinase (LCK), sequence (P06239 whole entry): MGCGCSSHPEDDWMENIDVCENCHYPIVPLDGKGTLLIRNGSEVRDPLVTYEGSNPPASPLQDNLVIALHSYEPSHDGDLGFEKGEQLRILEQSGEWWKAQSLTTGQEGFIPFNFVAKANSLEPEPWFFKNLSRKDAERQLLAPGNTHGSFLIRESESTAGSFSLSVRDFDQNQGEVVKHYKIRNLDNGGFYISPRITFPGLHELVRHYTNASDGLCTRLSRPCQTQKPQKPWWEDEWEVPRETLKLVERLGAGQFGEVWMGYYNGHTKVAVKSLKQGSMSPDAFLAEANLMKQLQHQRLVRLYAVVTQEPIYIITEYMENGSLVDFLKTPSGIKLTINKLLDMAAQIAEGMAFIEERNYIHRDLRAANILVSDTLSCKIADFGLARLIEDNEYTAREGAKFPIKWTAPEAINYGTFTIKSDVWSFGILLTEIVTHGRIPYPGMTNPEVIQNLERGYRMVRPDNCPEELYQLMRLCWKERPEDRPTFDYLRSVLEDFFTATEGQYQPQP

| SMILES | Kd [1] [nM] | Kd [2] [nM] | Kd [3] [nM] | Kd [4] [nM] | Kd [5] [nM] | IC50 [6] [nM] | Percentage of Maximum paradox inducing effect from dabrafenib [7] [%] | EC50 [7] [nM] | P-ERK reduction in combination with MEKi cobimetinib ([8]; combination with cobimetinib at fixed dose of 10 nM, compared with encorafenib/binimetinib) | P-ERK inhibition as single agent ([8]; single agent, compared with Encorafenib) | number of mice showing disease relapse [9] | antitumor response ([10]; YUMM1.7 tumors, Compound Ia oral daily) | recruitment of inflammatory infiltrate in tumors ([10]; flow cytometry and IHC data) |
| --- | --- | --- | --- | --- | --- | --- | --- | --- | --- | --- | --- | --- | --- |
| Cn1cnc2ccc(Nc3c(Cl)ccc(NS(=O)(=O)N4CCCC4)c3F)cc2c1=O [AR-31] | 45.9 | 119 | 190 | 1210 | 12000 | 311 | 51.2 | > 1000 |  |  |  |  |  |
| CN(C)S(=O)(=O)Nc1ccc(Cl)c(Nc2ccc3ncn(C)c(=O)c3c2)c1F [AR-30] | 174 | 504 | 822 | 8010 | 10400 | 406 | 59 | > 1000 |  |  |  |  |  |
| CCCS(=O)(=O)Nc1ccc(F)c(Oc2ccc3ncn(C)c(=O)c3c2)c1C#N [AR-25] | 0.1 | 0.2 | 0.3 | > 40000 | > 40000 | 1.1 |  | 9.6 |  |  |  |  |  |
| Cn1cnc2ccc(Oc3c(F)ccc(NS(=O)(=O)N4CC[C@@H](F)C4)c3C#N)cc2c1=O [Ex. 1, (3R)-N-[2-cyano-4-fluoro-3-(3-methyl-4-oxo-quinazolin-6-yl)oxy-phenyl]-3-fluoro-pyrrolidine-1-sulfonamide] |  |  |  |  |  |  | 43.65 |  | superior P-ERK reduction | potent P-ERK inhibition | strong impact | robust antitumor response | triggers recruitment of inflammatory infiltrate |
